Measured values reported in patent US10047058B2, “Compounds and methods for inhibiting vacuolar ATPase” (University of Southern California, priority 2015, dated 2018).

Assays:
[1] = test system: mammalian cells; conditions: cited from earlier work
[2] = test system: MB231 breast cancer cells; conditions: cited from earlier work
[3] = molecular target: ATP6V1A (Homo sapiens, UniProt P38606)
ATP6V1A, sequence (P38606 whole entry): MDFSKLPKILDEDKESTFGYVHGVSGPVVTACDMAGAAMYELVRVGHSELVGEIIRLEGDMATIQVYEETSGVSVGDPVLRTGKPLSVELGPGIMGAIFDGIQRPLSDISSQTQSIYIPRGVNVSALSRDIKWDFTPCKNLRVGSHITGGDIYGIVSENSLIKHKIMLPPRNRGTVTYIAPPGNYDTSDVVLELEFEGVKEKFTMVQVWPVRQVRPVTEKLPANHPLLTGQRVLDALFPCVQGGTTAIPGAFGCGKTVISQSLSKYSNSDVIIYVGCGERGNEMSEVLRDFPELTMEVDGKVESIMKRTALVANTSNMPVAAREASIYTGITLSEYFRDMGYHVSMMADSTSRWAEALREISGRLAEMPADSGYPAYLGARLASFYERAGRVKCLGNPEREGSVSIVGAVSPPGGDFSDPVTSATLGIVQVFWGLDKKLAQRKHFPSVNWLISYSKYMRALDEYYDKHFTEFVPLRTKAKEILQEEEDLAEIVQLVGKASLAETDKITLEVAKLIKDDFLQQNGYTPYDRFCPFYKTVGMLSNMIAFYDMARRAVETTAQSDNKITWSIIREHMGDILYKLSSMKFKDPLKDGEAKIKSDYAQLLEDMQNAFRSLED

archazolid
concentration that blocks growth of mammalian cells [1]: subnanomolar

CO/C1=C\C(C)=C\[C@@H](C)[C@@H](O)[C@@H](C)C/C(C)=C/C=C/[C@H](OC)[C@@H]([C@@H](C)[C@@H](O)[C@H](C)[C@@]2(O)C[C@@H](O)[C@H](C)[C@@H](C(C)C)O2)OC1=O [bafilomycin]
effect on invasiveness of cancer cells [2]: significantly inhibited

O=C(CCl)Nc1ccc2c(Nc3ccccc3)ncnc2c1 [Formula I]
IC50 [3]: ~0.03 µM | inhibition of probe QZ1 labeling (screen of electrophilic quinazolines) ([3]; 1 μM, cells pretreated with drug 30 min, then probe for 30 min): showed potent inhibition
